Laboratory results taken from patent US20240016814A1, “METHOD OF TREATING HYPERTENSION” (Cipla Limited, priority 2017, published 2024).
Values joined by “and” are separate entries in the source; they are usually repeats but may differ in a detail not shown here. Equal entries are not always repeated. Structures can show the parent of a compound that is named as a salt. Where two headings read alike, the source gives them in different places.

Key:
[1] = cited from earlier work
[2] = test system: rats with monocrotaline induced pulmonary arterial hypertension; test: Monocrotaline rat model for pulmonary arterial hypertension (Example 1, dosing Day 1 to 28); format: in vivo, Male Sprague-Dawley rats
Experimental: The studies were conducted for hemodynamic evaluation of desipramine in anesthetized sprague dawley rats treated with monocrotaline (“MCT”) to induce pulmonary arterial hypertension. Sildenafil was used as an internal control to compare the effects of desipramine.
The effects of Desipramine were evaluated in rats with monocrotaline induced pulmonary arterial hypertension using sildenafil as standard care treatment. Male Sprague-Dawley rats were orally administered vehicle, Desipramine (20 mg/kg given once daily every day for 28 days starting on Day 1), or sildenafil (100 mg/kg, administered once daily every day for 28 days starting on Day 1) (n=12 in each group). Rats received a single injection of monocrotaline (50 mg/kg, s.c.) on Study Day 1. On the twenty-eighth day following monocrotaline dosing, the rats were anesthetized with ketamine/xylazine for terminal monitoring of pulmonary and systemic arterial pressures along with heart rate.
Test Item: Vehicle (0.5% Methylcellulose+0.2% Tween 80 in deionized water. Desipramine (20 mg/kg given once daily for 28 days; Sildenafil (100 mg/kg administered once daily)
(§1) Route of Administration: Oral
Study Design: The study was planned and conducted according to design depicted below in Table 1
Pulmonary arterial hypertension was induced by injecting Monocrotaline (3 mL/Kg MCT in 50% DMSO in water) subcutaneously at a dose of 50 mg/kg of body weight to all the randomized Male Sprague-Dawley rats of Groups II, III, IV and V (except negative control group). Negative control group (Group I. DMSO group) received a single dose of 3 mL/kg 50% DMSO in water for injection subcutaneously. The positive control group (Group III) received 5 ml of vehicle every morning. The rats of desipramine group (Group IV) were orally administered Desipramine (20 mg/kg given once daily for 28 days starting on Day 1) and rats of sildenafil group (Group V) were orally administered sildenafil (100 mg/kg given once daily for 28 days starting on Day 1) On the twenty-eighth day after monocrotaline dosing, the rats were anesthetized with ketamine/xylazine for terminal monitoring of pulmonary and systemic arterial pressures along with heart rate.

[3] = test system: rats with monocrotaline induced pulmonary arterial hypertension; test: Monocrotaline rat model for treatment of pulmonary arterial hypertension (Example 2, dosing Day 14 till Day 28); format: in vivo, Male Sprague-Dawley rats; settings: for % Inhibition of Fulton index: Hypertrophy (RV/LV + S) / inhibition at 30 mg/kg: positive control = 0.00; for inhibition at 30 mg/kg: Rattus norvegicus, po
Experimental: The studies were conducted for hemodynamic evaluation of desipramnine in anesthetized Sprague Dawley rats treated with monocrotaline (“MCT”) to induce pulmonary arterial hypertension. Sildenafil was used as an internal control to compare the effects of desipramine. The effects of desipramine were evaluated in rats with monocrotaline induced pulmonary arterial hypertension using sildenafil as standard care treatment. Male Sprague-Dawley rats were orally administered vehicle, desipramine (30 mg/kg, given once daily every day starting on Day 14 till Day 28), or sildenafil (100 mg/kg, given once daily every day starting on Day 14 till Day 28) (n=12 in each group). Rats received a single injection of monocrotaline (50 mg/kg, s.c.) on Study Day 1. On the twenty-eighth day following monocrotaline dosing, the rats were anesthetized with ketamine/xylazine for terminal monitoring of pulmonary and systemic arterial pressures along with heart rate.
Test Item: Vehicle (0.5% Methylcellulose+0.2% Tween 80 in deionized water. Desipramine (30 mg/kg given once daily starting on Day 14 till Day 28; Sildenafil (100 mg/kg, administered once daily starting on Day 14 till Day 28)
as §1
Study Design: The study was planned and conducted according to design depicted below in Table 7
Pulmonary arterial hypertension was induced by injecting 50 mg/kg dose of monocrotaline (3 mL/Kg MCT in 50% DMSO in water) subcutaneously to all the randomized Male Sprague-Dawley rats of Groups VII, VII, IX and X (except negative control group). Negative control group (Group VI. DMSO group) received a single dose of 3 mL/kg 50% DMSO in water for injection subcutaneously. Male Sprague-Dawley rats in groups […], VII, VIII and IX and X were administered 50 mg/kg of body weight of monocrotaline in DMSO subcutaneously to induce PAH on day 1. The rats of vehicle positive control group (Group VIII) received 5 ml of vehicle every morning. The rats of desipramine group (Group IX) were orally administered desipramine (30 mg/kg given once daily starting on Day 14 till Day 28) and rats of sildenafil group (Group X) were orally administered dildenafil (100 mg/kg given once daily starting on Day 14 till Day 28). On the twenty-eighth day after monocrotaline dosing, the rats were anesthetized with ketamine/xylazine for terminal monitoring of pulmonary and systemic arterial pressures along with heart rate. It is understood that from day 1 till administration of test compounds i.e., until day 14, rates of all groups were suffering from PAH due to administration of MCT. Thus the study was conducted to evaluate the efficacy of desipramine treatment for PAH. Sildenafil was used as an internal control to compare the effects of desipramine.

[4] = group mean, Desipramine 20 mg/Kg p.o. QD Day 1-28, Day 28
[5] = individual animals, Desipramine 20 mg/Kg p.o. QD Day 1-28, Day 28
[6] = group mean, Desipramine 30 mg/Kg p.o. QD Day 14 till Day 28, Day 28
[7] = individual animals, Desipramine 30 mg/Kg p.o. QD Day 14 till Day 28, Day 28

CNCCCN1c2ccccc2CCc2ccccc21 [Desipramine hydrochloride]
time at which peak plasma concentrations are attained ([1]; following oral administration): 4 to 6 h
absorption from the gastrointestinal tract ([1]; in vivo): rapidly and almost completely absorbed
first-pass metabolism ([1]; in vivo): extensive

CNCCCN1c2ccccc2CCc2ccccc21 [Desipramine]
systolic and mean pulmonary arterial pressures compared to the vehicle group ([2]; after 28 days, desipramine 20 mg/kg/day once daily): differences
activity in controlling or reducing PAH compared with Sildenafil activity ([2]; desipramine 20 mg/kg vs sildenafil 100 mg/kg, Day 1-28): comparable
Fulton index: Hypertrophy (RV/LV + S), Mean [2, 4]: 0.321
RV/Body wt (Right Ventricle/Body Weight), Mean [2, 4]: 0.0007
Right Ventricle (RV), Mean [2, 4]: 0.200 g
Right Ventricular Pressure (RVP), Mean [2, 4]: 16.241 mmHg
Right Ventricular Systolic Pressure (RVSP), Mean ([2]; group mean, Desipramine 20 mg/Kg p.o. QD Day 1-28, MCT 50 mg/kg s.c., Day 28): 33.154 mmHg
Fulton index: Hypertrophy (RV/LV + S) [2, 5]: 0.292 and 0.474 and 0.274 and 0.244 and 0.286 and 0.278 and 0.426 and 0.352 and 0.263
RV/Body wt (Right Ventricle/Body Weight) [2, 5]: 0.0005 (4×) and 0.0012 and 0.0006 (2×) and 0.0008 (2×)
Right Ventricle (RV) [2, 5]: 0.171 g and 0.272 g and 0.168 g and 0.163 g and 0.169 g (2×) and 0.289 g and 0.251 g and 0.150 g
Right Ventricular Pressure (RVP) [2, 5]: 22.694 mmHg and 19.903 mmHg and 14.460 mmHg and 12.513 mmHg and 13.047 mmHg and 12.287 mmHg and 13.930 mmHg and 16.428 mmHg and 20.906 mmHg
Right Ventricular Systolic Pressure (RVSP) ([2]; individual animals, Desipramine 20 mg/Kg p.o. QD Day 1-28, MCT 50 mg/kg s.c., Day 28): 44.096 mmHg and 40.737 mmHg and 27.834 mmHg and 26.777 mmHg and 25.403 mmHg and 26.483 mmHg and 31.091 mmHg and 37.179 mmHg and 38.785 mmHg
% Inhibition of Fulton index: Hypertrophy (RV/LV + S) ([3]; Desipramine 30 mg/Kg p.o. QD Day 14 till Day 28): 32.07%
inhibition at 30 mg/kg ([3]; Desipramine 30 mg/Kg p.o. QD Day 14 till Day 28, read-out: % Inhibition of Right Ventricular Pressure (RVP)): 53.9%
inhibition at 30 mg/kg ([3]; Desipramine 30 mg/Kg p.o. QD Day 14 till Day 28, read-out: % Inhibition of Right Ventricular Systolic Pressure (RVSP)): 51.6%
systolic and mean pulmonary arterial pressures compared to the vehicle group ([3]; after 28 days, desipramine 30 mg/kg/day once daily, Day 14 till Day 28): differences
activity in treatment of PAH compared with Sildenafil activity ([3]; desipramine 30 mg/kg vs sildenafil 100 mg/kg, Day 14 till Day 28): comparable
Fulton index: Hypertrophy (RV/LV + S), Mean [3, 6]: 0.376
Right Ventricle weight, Mean [3, 6]: 0.250 gms
Right Ventricular Pressure (RVP), Mean [3, 6]: 15.796 mmHg
Right Ventricular Systolic Pressure (RVSP), Mean [3, 6]: 33.248 mmHg
Right ventricle/Body weight, Mean [3, 6]: 0.0007
Fulton index: Hypertrophy (RV/LV + S) [3, 7]: 0.404 and 0.426 and 0.430 and 0.333 and 0.288
Right Ventricle weight [3, 7]: 0.252 gms and 0.274 gms and 0.340 gms and 0.205 gms and 0.181 gms
Right Ventricular Pressure (RVP) [3, 7]: 14.133 mmHg and 19.618 mmHg and 19.346 mmHg and 15.432 mmHg and 10.448 mmHg
Right ventricle/Body weight [3, 7]: 0.0008 (2×) and 0.0010 and 0.0006 and 0.0005
Right Ventricular Systolic Pressure (RVSP) ([3]; individual animals, Desipramine 30 mg/Kg p.o. QD Day 14 till Day 28, MCT 50 mg/kg s.c., Day 28): 30.245 mmHg and 39.927 mmHg and 38.672 mmHg and 32.210 mmHg and 25.188 mmHg

CCCc1nn(C)c2c(=O)[nH]c(-c3cc(S(=O)(=O)N4CCN(C)CC4)ccc3OCC)nc12 [Sildenafil]
RV/Body wt (Right Ventricle/Body Weight), Mean ([2]; group mean, Sildenafil 100 mg/kg p.o. QD Day 1-28, Day 28): 0.0006
RV/Body wt (Right Ventricle/Body Weight) ([2]; individual animals, Sildenafil 100 mg/kg p.o. QD Day 1-28, Day 28): 0.0009 and 0.0006 (4×) and 0.0007 (3×) and 0.0003
% Inhibition of Fulton index: Hypertrophy (RV/LV + S) ([3]; Sildenafil 100 mg/Kg p.o. QD Day 14 till Day 28): 30.70%
Fulton index: Hypertrophy (RV/LV + S), Mean ([3]; group mean, Sildenafil 100 mg/Kg p.o. QD Day 14 till Day 28, Day 28): 0.384
Fulton index: Hypertrophy (RV/LV + S) ([3]; individual animals, Sildenafil 100 mg/Kg p.o. QD Day 14 till Day 28, Day 28): 0.393 and 0.306 and 0.337 and 0.389 and 0.415 and 0.464
